Test results reported in US20100280040A1 (KAOHSIUNG MEDICAL UNIVERSITY, priority 2009, published 2010).
Values joined by “and” are separate entries in the source; they are usually repeats but may differ in a detail not shown here. Identical values can stand only once. Like-named read-outs stand apart in the source and are kept apart here. Marks after values point to notes of the source that are not given here.

Assays:
[1] = test system: rat tracheal smooth muscle cells (TSMCs); test: MTT assay on rat tracheal smooth muscle cells; format: cell-based, Wistar rat; conditions: for cytotoxicity on rat TSMCs: 0.001 to 100 μM, 24 hours, MTT
Method: Tracheal tissue of Wistar rat (200 g to 250 g) was aseptically obtained and connective tissue around the tracheal tissue was removed. […] Supernatant was discarded after centrifugation, and cells were resuspended in 10 ml fresh medium B and cultured on 10 cm cull culture plate to proceed the subsequent experiments. The third to sixth generations of cells were used in the following experiments. Cell concentration was adjusted to 10^4 cells/ml by using a cell counter. Ten thousand cells (1 ml) were inoculated in 24-well culture plate for 24 hours, and cells were attached thereon. Medium B then was added to culture cells for another 24 hours. Subsequently, different concentrations of drugs were added into wells for continuously incubating for 24 hours in low-oxygen incubator. MTT (methylhiazolyldiphenyl-tetrazolium bromide, 100 μl, 5 mg/ml) was added into the wells for darkly reacted for 3 hours at 37° C. Isopropanol of 500 μl was added to solve the […], formazan, after MTT was withdrawn. After 10 minutes, the supernatant ([…]) was transferred to the new 96-well culture plate to determine the absorbance at 540 nm (OD540) and 630 nm (OD630). The effect of drug on cellular growth was evaluated by the value of “OD540-OD630”.

[2] = Pharmacokinetic analysis of MSC in male ICR mice (plasma MSC by LC-MS/MS); format: in vivo; conditions: for Maximum mean plasma concentration of MSC / Minimum mean plasma concentration of MSC / Mean plasma concentration of MSC: ICR mice; for Maximum mean plasma concentration of MSC: 2 min; for Mean plasma concentration of MSC: 2 hours
[3] = Mean plasma concentration of MSC after different dosage forms of Pulmodil in SD rats (3 groups, 8 rats per group); format: in vivo
Text: First, SD rats were divided into 3 groups, 8 rats per group.

[4] = for Maximum mean plasma concentration of MSC / Minimum mean plasma concentration of MSC: CD-1 (Crl) mice; for Maximum mean plasma concentration of MSC: 2 min
Method: These pharmaceutical solutions were vortexed and sonicated to be fully dissolved to accomplish the preparation of drugs for i.v. administration.
Male Sprague-Dawley (SD) rats (body weight: 250˜292 g) and male CD-1 (Crl) mice (body weight: 23˜25 g) were purchased from BioLasco Taiwan Co., Ltd., Taiwan, and male ICR mice (body weight: 23˜25 g) were provided from MDS Pharma Services (King of Prussia, Pa., U.S.A.). […] Rats and mice were fasted at least 16 hours prior to oral administration.
Regarding CD-1 (Crl) mice and ICR mice, blood samples were collected by cardiac puncture post i.v. administration for 0, 2, 5, 15, 30 minutes, 1, 1.5, 2, 4, 6, 9, 24 and 27 hours (a total of 13 sampling time points). Blood samples of mice were collected by cardiac puncture before oral administration. Blood samples of three mice were collected at each time point by cardiac puncture post oral administration for 15, 30 minutes, 1, 1.5, 2, 4, 6, 9, 24 and 27 hours (a total of 11 sampling time points). Blood sample (0.5˜0.7 ml) collected by cardiac puncture was placed in a 1.5-ml Eppendorf microcentrifuge tube containing 5 μl of anti-coagulant heparin sodium (5,000 I.U./ml), followed by centrifugation at 12,000 rpm at 4° C. for 10 minutes. The plasma fraction was transferred to a clean microcentrifuge tube and stored at −70° C.
Plasma sample was mixed with acetonitrile and centrifuged, and the supernatant was injected onto an LC column. The pharmacokinetic parameters were calculated from mean plasma concentration by WinNonlin Standard program (version 3.1, Pharsight Corp.).

[5] = Pharmacokinetic analysis of Pulmodil in male SD rats (plasma MSC by LC-MS/MS); format: in vivo, male Sprague-Dawley (SD) rats; conditions: for Maximum mean plasma concentration of MSC / Minimum mean plasma concentration of MSC / Mean plasma concentration of MSC: SD rats
[6] = MSC single i.v. 2.0 mg/kg, male ICR mice
[7] = MSC single oral 20.0 mg/kg, male ICR mice
[8] = Pulmodil-1 single i.v. 2.0 mg/kg, male CD-1 (Crl) mice
[9] = Pulmodil single i.v. 2.0 mg/kg, male SD rats
[10] = Pulmodil single oral 18.3 mg/kg, male SD rats
[11] = Pulmodil single sublingual 3.4 mg/kg, male SD rats
[12] = Pulmodil-1 single oral 20.0 mg/kg, male CD-1 (Crl) mice

Cn1c(=O)c2c(ncn2CCN2CCN(c3ccccc3Cl)CC2)n(C)c1=O [MSC]
cytotoxicity on rat TSMCs [1]: did not show cytotoxicity
Maximum mean plasma concentration of MSC ([2]; MSC i.v. 2.0 mg/kg, 2 mg/kg): 447.76 ± 50.30 ng/mL and 447.76 ng/mL
Minimum mean plasma concentration of MSC ([2]; MSC i.v. 2.0 mg/kg, 24 hr): 0.39 ng/mL
Mean plasma concentration of MSC ([2]; MSC i.v.): 0.00482 ± 0.00198 µg/mL
Maximum mean plasma concentration of MSC ([2]; MSC oral 20.0 mg/kg, 20 mg/kg): 205.92 ± 56.94 ng/mL and 205.92 ng/mL
Minimum mean plasma concentration of MSC ([2]; MSC oral 20.0 mg/kg, 9 hr, 20 mg/kg): 3.74 ± 1.62 ng/mL and 3.74 ng/mL
Mean plasma concentration of MSC ([2]; MSC oral): 0.09426 ± 0.04036 µg/mL
AUC(0-inf) [2, 6]: 0.2366 µg·h/mL
C(0) [2, 6]: 0.5158 µg/mL
Cl [2, 6]: 8.454 L/h/kg
MRT [2, 6]: 120 min
Vss [2, 6]: 17.2 L/kg
Vz [2, 6]: 79.0 L/kg
t1/2 ([2]; MSC single i.v. 2.0 mg/kg, male ICR mice, determined between 9 and 24 hours): 6.5** hr
AUC(0-inf) [2, 7]: 0.4625 µg·h/mL
Bioavailability [2, 7]: 19.5%
MAT (MRTPO − MRTIV) [2, 7]: 48 min
MRT [2, 7]: 168 min
Tmax [2, 7]: 15 min
Cmax ([2]; MSC single oral 20.0 mg/kg, male ICR mice, 20 mg/kg): 0.2059 µg/mL
t1/2 ([2]; MSC single oral 20.0 mg/kg, male ICR mice, determined between 4 to 9 hours): 1.2** hr

Cl.Cn1c(=O)c2c(ncn2CCN2CCN(c3ccccc3Cl)CC2)n(C)c1=O [Pulmodil, 7-[2-[4-(2-chlorobenzene)piperazinyl]ethyl]-1,3-dimethylxanthine.HCl]
highest mean plasma concentration of MSC ([3]; Pulmodil i.v. 2.0 mg/kg, 2 minutes): 1263.12 ± 181.44 ng/mL
highest mean plasma concentration of MSC ([3]; Pulmodil i.v. 2.0 mg/kg, 5 minutes): 1171.077 ± 222.16 ng/mL
highest mean plasma concentration of MSC ([3]; Pulmodil oral 20 mg/kg, 5 minutes): 954.32 ± 332.81 ng/mL
highest mean plasma concentration of MSC ([3]; Pulmodil oral 20 mg/kg, 10 minutes): 806.85 ± 160.05 ng/mL
highest mean plasma concentration of MSC ([3]; Pulmodil sublingual 3.6 mg/kg, 2 minutes): 22.48 ± 4.09 ng/mL
highest mean plasma concentration of MSC ([3]; Pulmodil sublingual 3.6 mg/kg, 30 minutes): 18.24 ± 5.70 ng/mL
cytotoxicity on rat TSMCs [1]: did not show cytotoxicity
cell survival rate ([1]; high concentrations (10 and 100 μM), rat TSMCs): ~100%
Cmax [4, 8]: 1.785 µg/mL
Maximum mean plasma concentration of MSC ([5]; Pulmodil i.v. 2.0 mg/kg, 2 min, 2 mg/kg): 1263.1 ± 181.4 ng/mL and 1263.1 ng/mL
Minimum mean plasma concentration of MSC ([5]; Pulmodil i.v. 2.0 mg/kg, 6 hr, 2 mg/kg): 0.7 ± 0.3 ng/mL and 0.7 ng/mL
Maximum mean plasma concentration of MSC ([5]; Pulmodil oral 20 mg/kg, 5 min): 1294.1 ng/mL
Minimum mean plasma concentration of MSC ([5]; Pulmodil oral 20 mg/kg, 9 hr): 5.9 ng/mL
Mean plasma concentration of MSC ([5]; Pulmodil oral 20 mg/kg, 24 hr (text: 24- and 27-hour), 20 mg/kg): 0.0002 ± 0.0001 µg/mL and 0.0002 µg/mL
Mean plasma concentration of MSC ([5]; Pulmodil oral 20 mg/kg, within 2 minutes): 0.8797 µg/mL
AUC(0-inf) [5, 9]: 0.608 µg·h/mL
Cl [5, 9]: 3.1 L/h/kg
MRT [5, 9]: 36 min
Vss [5, 9]: 1.8 L/kg
Vz [5, 9]: 3.4 L/kg
t1/2 [5, 9]: 48 min
AUC(0-inf) [5, 10]: 1.142 µg·h/mL
Cmax [5, 10]: 1.39 µg/mL
MAT (MRTPO − MRTIV) [5, 10]: 66 min
MRT [5, 10]: 102 min
Tmax [5, 10]: 6 min
t1/2 [5, 10]: 198 min
AUC(0-inf) [5, 11]: 0.042 µg·h/mL
Bioavailability [5, 11]: 3.7%
Cmax [5, 11]: 0.027 µg/mL
MAT (MRTSL − MRTIV) [5, 11]: 108 min
MRT [5, 11]: 144 min
Tmax [5, 11]: 6 min
t1/2 [5, 11]: 138 min
Maximum mean plasma concentration of MSC ([5]; Pulmodil sublingual 3.6 mg/kg, 10 min): 25.9 ± 5.5 ng/mL and 25.9 ng/mL
Minimum mean plasma concentration of MSC ([5]; Pulmodil sublingual 3.6 mg/kg, 9 hr): 0.7 ng/mL
Mean plasma concentration of MSC ([5]; Pulmodil sublingual 3.6 mg/kg, within 2 minutes): 0.0225 ± 0.0041 µg/mL
Bioavailability ([5]; route not stated, given as fraction): 0.2

Cn1c(=O)c2c(ncn2CCN2CCN(c3ccccc3Cl)CC2)n(C)c1=O.O=C(O)CC(O)(CC(=O)O)C(=O)O [Pulmodil-1, 7-[2-[4-(2-chlorobenzene)piperazinyl]ethyl]-1,3-dimethylxanthine.citric acid]
cytotoxicity on rat TSMCs [1]: did not show cytotoxicity
Maximum mean plasma concentration of MSC ([4]; Pulmodil-1 i.v. 2.0 mg/kg, 2 mg/kg): 1425.4 ± 138.2 ng/mL and 1425.4 ng/mL
Minimum mean plasma concentration of MSC ([4]; Pulmodil-1 i.v. 2.0 mg/kg, 2 hr, 2 mg/kg): 2.7 ± 2.2 ng/mL and 2.7 ng/mL
Maximum mean plasma concentration of MSC ([4]; Pulmodil-1 oral 20.0 mg/kg, 20 mg/kg): 683.2 ± 187.5 ng/mL and 683.2 ng/mL
Minimum mean plasma concentration of MSC ([4]; Pulmodil-1 oral 20.0 mg/kg, 4 hr): 11.9 ng/mL
AUC(0-inf) [4, 8]: 0.3713 µg·h/mL
Cl [4, 8]: 5.4 L/h/kg
Cmax [4, 8]: 1.785 µg/mL
Vss [4, 8]: 1.4 L/kg
Vz [4, 8]: 2.0 L/kg
t1/2 ([4]; Pulmodil-1 single i.v. 2.0 mg/kg, male CD-1 (Crl) mice, determined between 0.5 and 2 hours): 0.3 h
AUC(0-inf) [4, 12]: 0.3793 µg·h/mL
Cmax [4, 12]: 0.683 µg/mL
MAT (MRTPO − MRTIV) [4, 12]: 42 min
Tmax [4, 12]: 18 min
Bioavailability ([4]; Pulmodil-1 single oral 20.0 mg/kg, male CD-1 (Crl) mice, 20 mg/kg): 10% and 10.2%
t1/2 ([4]; Pulmodil-1 single oral 20.0 mg/kg, male CD-1 (Crl) mice, determined between 0.5 to 4 hours): 1.0* hr
